Assays:
CD69 = test: Induction of CD69 in human whole blood; type: cell-based; conditions: 17 hrs, CD69 surface staining, 100% set to 1 uM of resiquimod, average where assay was performed multiple times, read-out: hWB CD69 EC50
Protocol: The induction of Type I interferon (IFN) MX-1 genes and the B-cell activation marker CD69 are downstream events that occur upon activation of the TLR7 pathway. The following is a human whole blood assay that measures their induction in response to a TLR7 agonist.
Heparinized human whole blood was harvested from human subjects and treated with test TLR7 agonist compounds at 1 mM. The blood was diluted with RPMI 1640 media and Echo was used to predot 10 nL per well giving a final concentration of 1 uM (10 nL in 10 uL of blood). After mixing on a shaker for 30 sec, the plates were covered and placed in a 37° C. chamber for o/n=17 hrs. Fixing/lysis buffer was prepared (5×→1× in H2O, warm at 37° C.; Cat # BD 558049) and kept the perm buffer (on ice) for later use.
For surface markers staining (CD69): prepared surface Abs: 0.045 ul hCD14-FITC (ThermoFisher Cat # MHCD1401)+0.6 ul hCD19-ef450 (ThermoFisher Cat #48-0198-42)+1.5 ul hCD69-PE (cat # BD555531)+0.855 ul FACS buffer. Added 3 ul/well, spin1000 rpm for 1 min and mixed on shaker for 30 sec, put on ice for 30 mins. Stop stimulation after 30 minutes with 70 uL of prewarmed 1× fix/lysis buffer and use Feliex mate to resuspend (15 times, change tips for each plate) and incubate at 37 C for 10 minutes.
Centrifuge at 2000 rpm for 5 minutes aspirate with HCS plate washer, mix on shaker for 30 sec and then wash with 70 uL in dPBS and pelleted 2×s (2000 rpm for 5 min) and 50 ul wash in FACS buffer pelleted 1×s(2000 rpm for 5 min). Mix on shaker for 30 sec. For Intracellular markers staining (MX-1): Add 50 ul of BD Perm buffer III and mix on shaker for 30 sec. Incubate on ice for 30 minutes (in the dark). Wash with 50 uL of FACS buffer 2× (spin @2300 rpm×5 min after perm) followed by mixing on shaker for 30 sec. Resuspended in 20 ul of FACS buffer containing MX1 antibody ( )(4812)-Alexa 647: Novus Biologicals #NBP2-43704AF647) 20 ul FACS bf+0.8 ul hlgG+0.04 ul MX-1. Spin 1000 rpm for 1 min, mix on shaker for 30se and the samples were incubated at RT in the dark for 45 minutes followed by washing 2×FACS buffer (spin @2300 rpm×5 min after perm). Resuspend 20 ul (35 uL total per well) of FACS buffer and cover with foil and place in 4° C. to read the following day. Plates were read on iQuePlus. The results were loaded into toolset and […] curves are generated in curve master. The y-axis 100% is set to 1 uM of resiquimod.

human TLR7 = molecular target: T1, human TLR7 (Homo sapiens, UniProt Q9NYK1); test: Human TLR7 agonist (reporter) activity assay, HEK-Blue TLR7 cells, SEAP reporter; type: cell-based; conditions: 18 h treatment, average where assay was performed multiple times, read-out: hTLR7 Agonism EC50
T1 construct: host or cells: HEK-Blue TLR7 cells (engineered human embryonic kidney cells)
T1 sequence (Q9NYK1 27-1049): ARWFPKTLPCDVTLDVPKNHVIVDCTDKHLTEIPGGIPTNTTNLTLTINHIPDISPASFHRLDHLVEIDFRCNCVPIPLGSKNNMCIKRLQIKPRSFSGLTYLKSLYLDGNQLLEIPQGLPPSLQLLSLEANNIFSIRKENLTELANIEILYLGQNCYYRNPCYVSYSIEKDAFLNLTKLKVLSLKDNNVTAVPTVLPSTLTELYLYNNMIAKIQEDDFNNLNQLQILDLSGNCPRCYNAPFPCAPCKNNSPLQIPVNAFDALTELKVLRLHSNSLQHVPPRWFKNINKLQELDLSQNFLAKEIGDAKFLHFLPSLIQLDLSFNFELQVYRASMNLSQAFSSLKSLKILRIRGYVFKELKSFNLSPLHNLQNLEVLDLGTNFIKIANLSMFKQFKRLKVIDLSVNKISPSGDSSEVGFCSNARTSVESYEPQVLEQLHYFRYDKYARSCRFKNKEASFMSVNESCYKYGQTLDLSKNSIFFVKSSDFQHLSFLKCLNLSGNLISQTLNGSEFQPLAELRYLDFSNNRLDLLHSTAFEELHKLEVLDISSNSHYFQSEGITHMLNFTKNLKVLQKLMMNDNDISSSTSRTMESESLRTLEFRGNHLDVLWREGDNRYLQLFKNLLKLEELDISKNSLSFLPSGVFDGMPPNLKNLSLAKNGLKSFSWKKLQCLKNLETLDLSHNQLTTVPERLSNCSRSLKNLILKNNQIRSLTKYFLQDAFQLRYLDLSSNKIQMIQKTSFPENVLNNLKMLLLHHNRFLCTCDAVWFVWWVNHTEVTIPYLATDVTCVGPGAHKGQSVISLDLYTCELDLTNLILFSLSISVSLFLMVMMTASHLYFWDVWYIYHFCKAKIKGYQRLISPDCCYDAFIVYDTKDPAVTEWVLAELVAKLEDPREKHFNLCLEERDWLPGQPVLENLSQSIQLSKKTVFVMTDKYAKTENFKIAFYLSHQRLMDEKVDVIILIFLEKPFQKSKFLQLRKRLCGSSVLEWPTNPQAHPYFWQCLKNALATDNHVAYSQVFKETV
Protocol: This procedure describes a method for assaying human TLR7 (hTLR7) agonist activity of the compounds disclosed in this specification.
HEK-Blue™ TLR7 cells were added to each well of a 384-well tissue-culture plate (15,000 cells per well) and incubated 16-18 h at 37° C., 5% CO2. Compounds (100 nl) were dispensed into wells containing the HEK-Blue™ TLR cells and the treated cells were incubated at 37° C., 5% CO2. After 18 h treatment ten microliters of freshly-prepared Quanti-Blue™ reagent (Invivogen) was added to each well, incubated for 30 min (37° C., 5% CO2) and SEAP levels measured using an Envision plate reader (OD=620 nm). The half maximal effective concentration values (EC50; compound concentration which induced a response halfway between the assay baseline and maximum) were calculated.

EC50 (CD69) [nM] | EC50 (human TLR7) [nM] | SMILES
289 | 656 | COc1cc(CN2CCS(=O)(=O)CC2)ccc1Cn1ncc2nc(N)nc(NCc3noc(C)n3)c21 [Compound 121, 4-({4-[(5-amino-7-{[(5-methyl-1,2,4-oxadiazol-3-yl)methyl]amino}-1H-pyrazolo[4,3-d]pyrimidin-1-yl)methyl]-3-methoxyphenyl}methyl)-1λ^6-thiomorpholine-1,1-dione]
3.6 | 12.3 | COc1cc(CN2CCN(C)CC2)ccc1Cn1ncc2nc(N)nc(NCc3cc(C)on3)c21 [Compound 104, 1-({2-methoxy-4-[(4-methylpiperazin-1-yl)methyl]phenyl}methyl)-N7-[(5-methyl-1,2-oxazol-3-yl)methyl]-1H-pyrazolo[4,3-d]pyrimidine-5,7-diamine]

Source: patent publication US20230131192A1, “1H-PYRAZOLO[4,3-d]PYRIMIDINE COMPOUNDS AS TOLL-LIKE RECEPTOR 7 (TLR7) AGONISTS” (BRISTOL-MYERS SQUIBB COMPANY, priority 2020, published 2023)
